Drawing on patent US7205295B2, “Benzoxazin-3-ones and derivatives thereof as therapeutic agents” (Warner-Lambert Company LLC, priority 2002, dated 2007), this text covers IC50 for 31 compounds.

pIC50: −log10 of the molar value.

T1 sequence (P48736 whole entry, species assumed): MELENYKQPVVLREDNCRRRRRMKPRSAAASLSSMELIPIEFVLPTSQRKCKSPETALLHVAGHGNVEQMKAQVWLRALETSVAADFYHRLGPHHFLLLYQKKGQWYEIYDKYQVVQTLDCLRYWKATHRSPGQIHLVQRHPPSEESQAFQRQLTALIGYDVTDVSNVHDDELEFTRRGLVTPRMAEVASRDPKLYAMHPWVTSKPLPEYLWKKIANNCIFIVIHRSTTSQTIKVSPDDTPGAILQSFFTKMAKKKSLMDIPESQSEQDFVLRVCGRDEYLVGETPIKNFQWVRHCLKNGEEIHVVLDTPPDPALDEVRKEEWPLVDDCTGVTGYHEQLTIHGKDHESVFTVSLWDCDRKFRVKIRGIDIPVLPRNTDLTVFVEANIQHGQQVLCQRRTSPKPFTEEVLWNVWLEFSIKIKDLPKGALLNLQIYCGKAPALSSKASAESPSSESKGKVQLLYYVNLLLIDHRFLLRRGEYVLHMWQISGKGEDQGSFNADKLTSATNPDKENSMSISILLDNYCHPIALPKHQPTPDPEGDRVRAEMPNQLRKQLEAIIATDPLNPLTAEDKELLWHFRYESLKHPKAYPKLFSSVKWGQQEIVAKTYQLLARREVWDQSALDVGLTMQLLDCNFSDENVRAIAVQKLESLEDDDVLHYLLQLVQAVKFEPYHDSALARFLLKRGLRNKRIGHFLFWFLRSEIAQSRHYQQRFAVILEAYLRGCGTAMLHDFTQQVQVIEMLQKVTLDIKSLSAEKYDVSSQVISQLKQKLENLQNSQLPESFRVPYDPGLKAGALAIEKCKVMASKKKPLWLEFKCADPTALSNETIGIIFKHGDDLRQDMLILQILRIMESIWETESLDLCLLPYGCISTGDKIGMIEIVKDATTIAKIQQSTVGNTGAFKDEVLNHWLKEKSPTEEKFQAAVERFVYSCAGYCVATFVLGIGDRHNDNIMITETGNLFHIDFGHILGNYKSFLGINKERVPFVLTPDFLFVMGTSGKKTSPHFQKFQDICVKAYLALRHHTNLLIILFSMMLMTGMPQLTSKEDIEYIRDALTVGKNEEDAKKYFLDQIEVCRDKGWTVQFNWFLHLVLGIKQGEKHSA
T1 sequence (Q8WYR1 whole entry partner, species assumed): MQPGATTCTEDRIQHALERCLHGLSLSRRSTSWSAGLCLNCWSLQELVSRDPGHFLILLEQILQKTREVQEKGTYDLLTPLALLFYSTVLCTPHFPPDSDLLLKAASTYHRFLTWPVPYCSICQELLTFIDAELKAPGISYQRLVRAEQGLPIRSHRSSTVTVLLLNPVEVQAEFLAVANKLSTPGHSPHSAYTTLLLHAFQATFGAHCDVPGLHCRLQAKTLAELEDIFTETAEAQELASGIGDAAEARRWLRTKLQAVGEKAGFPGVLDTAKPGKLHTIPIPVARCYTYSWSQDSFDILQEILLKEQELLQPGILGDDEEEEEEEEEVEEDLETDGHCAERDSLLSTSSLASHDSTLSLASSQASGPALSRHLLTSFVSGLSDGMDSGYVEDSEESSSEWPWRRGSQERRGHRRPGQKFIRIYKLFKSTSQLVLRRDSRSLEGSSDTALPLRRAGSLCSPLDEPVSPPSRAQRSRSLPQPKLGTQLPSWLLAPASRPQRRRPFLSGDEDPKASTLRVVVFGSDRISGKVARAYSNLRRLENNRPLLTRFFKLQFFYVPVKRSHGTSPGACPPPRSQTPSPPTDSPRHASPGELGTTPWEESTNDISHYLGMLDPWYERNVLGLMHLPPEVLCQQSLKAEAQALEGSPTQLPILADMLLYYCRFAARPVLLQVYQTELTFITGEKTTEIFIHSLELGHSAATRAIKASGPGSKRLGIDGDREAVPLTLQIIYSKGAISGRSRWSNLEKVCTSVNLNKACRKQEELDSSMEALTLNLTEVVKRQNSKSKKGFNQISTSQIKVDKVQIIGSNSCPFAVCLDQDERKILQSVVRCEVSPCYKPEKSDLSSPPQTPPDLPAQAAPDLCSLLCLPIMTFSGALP

The assay has as its target T1, PI3Kγ (p101/p110γ protein) (Homo sapiens, UniProt P48736).
T1 construct: HA; made in house; host or cells: Spodoptera frugiperda (Sf9) cells, baculovirus co-infection
The experiment in a line: PI3Kγ In Vitro Kinase Assay. As to conditions: purified recombinant p101/p110γ with G protein β1/γ2 subunits; 20 μM ATP, 25 μM PIP2; 20 minutes at room temperature. The class given is biochemical. In a few lines:
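Reactions ran 20 min at room temperature, pairing lipid micelles (25 μM PIP2, 300 μM PE, 0.02% Na-cholate, 10 mM MgCl2) with 20 μM ATP including [γ-32P]ATP. The enzyme was recombinant p101/p110γ (2.7 nM) with G protein β1/γ2 (57.7 nM). [32P]PIP3 product was stopped with H3PO4, filtered and scintillation counted.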
Take `O=C(O)CN1C(=O)C(=Cc2cc(F)c3c(c2)N(Cc2ccc(F)c(Cl)c2)C(=O)CO3)SC1=S` [Example 296, {5-[4-(3-Chloro-4-fluoro-benzyl)-8-fluoro-3-oxo-3,4-dihydro-2H-benzo[1,4]oxazin-6-ylmethylene]-4-oxo-2-thioxo-thiazolidin-3-yl}-acetic acid; compound with ethane-1,2-diamine]: the pIC50 – broadly, −log10 of the IC50, conventionally taken in molar units – was 5.41.
Regarding `O=C1NC(=S)SC1=Cc1cc(F)c2c(c1)N(Cc1cc(Br)cc(Br)c1)C(=O)CO2` [Example 297, 4-(3,5-Dibromo-benzyl)-8-fluoro-6-(4-oxo-2-thioxo-thiazolidin-5-ylidenemethyl)-4H-benzo[1,4]oxazin-3-one], the pIC50 is 7.44.
As to `O=C1NC(=O)C(=Cc2cc(F)c3c(c2)N(Cc2ccc(F)cc2)C(=O)CO3)S1` [Example 298, 5-[8-Fluoro-4-(4-fluoro-benzyl)-3-oxo-3,4-dihydro-2H-benzo[1,4]oxazin-6-ylmethylene]-thiazolidine-2,4-dione], the pIC50 is 9.00.
The value for `COc1ccc(CN2C(=O)COc3c(F)cc(C=C4SC(=S)NC4=O)cc32)cc1C(F)(F)F` [Example 299, 8-Fluoro-4-(4-methoxy-3-trifluoromethyl-benzyl)-6-(4-oxo-2-thioxo-thiazolidin-5-ylidenemethyl)-4H-benzo[1,4]oxazin-3-one] was 8.22; that for `O=C1NC(=S)OC1=Cc1cc(F)c2c(c1)N(Cc1ccc(F)c(Cl)c1)C(=O)CO2` [Example 300, 4-(3-Chloro-4-fluoro-benzyl)-8-fluoro-6-(4-oxo-2-thioxo-oxazolidin-5-ylidenemethyl)-4H-benzo[1,4]oxazin-3-one] was 8.52.
Turning to `O=C1NC(=S)SC1=Cc1cc(F)c2c(c1)N(Cc1ccc(F)cc1)C(=O)CO2` [Example 301, 8-Fluoro-4-(4-fluoro-benzyl)-6-(4-oxo-2-thioxo-thiazolidin-5-ylidenemethyl)-4H-benzo[1,4]oxazin-3-one], the pIC50 is 9.00.
The value for `CC(C)(O)c1cc(CN2C(=O)COc3c(F)cc(C=C4SC(=S)NC4=O)cc32)ccc1F` [Example 302, 8-Fluoro-4-[4-fluoro-3-(1-hydroxy-1-methyl-ethyl)-benzyl]-6-(4-oxo-2-thioxo-thiazolidin-5-ylidenemethyl)-4H-benzo[1,4]oxazin-3-one; Compound with Ethane-1,2-diamine] was 7.92; that for `O=C1NC(=S)SC1=Cc1ccc2c(c1)N(Cc1ccc(F)cc1)C(=O)CO2` [Example 303, 4-(4-Fluoro-benzyl)-6-(4-oxo-2-thioxo-thiazolidin-5-ylidenemethyl)-4H-benzo[1,4]oxazin-3-one] was 8.70; that for `CC(C)(O)c1cc(CN2C(=O)COc3ccc(C=C4SC(=S)NC4=O)cc32)ccc1F` [Example 304, 4-[4-Fluoro-3-(1-hydroxy-1-methyl-ethyl)-benzyl]-6-(4-oxo-2-thioxo-thiazolidin-5-ylidenemethyl)-4H-benzo[1,4]oxazin-3-one; Compound with Ethane-1,2-diamine] was 8.10.
In the case of `CC(C)(O)c1cc(CN2C(=O)COc3ccc(C=C4SC(=O)NC4=O)cc32)ccc1F` [Example 305, 5-{4-[4-Fluoro-3-(1-hydroxy-1-methyl-ethyl)-benzyl]-3-oxo-3,4-dihydro-2H-benzo[1,4]oxazin-6-ylmethylene}-thiazolidine-2,4-dione] it was 7.80.
As for `Cc1cc(CN2C(=O)COc3ccc(C=C4SC(=S)NC4=O)cc32)ccc1F` [Example 306, 4-(4-Fluoro-3-methyl-benzyl)-6-(4-oxo-2-thioxo-thiazolidin-5-ylidenemethyl)-4H-benzo[1,4]oxazin-3-one], the pIC50 was 9.00.
The value for `O=C1NC(=O)C(=Cc2ccc3c(c2)N(Cc2cccc(Oc4ccccc4F)c2)C(=O)CO3)S1` [Example 307] was 8.30; that for `O=C1NC(=O)C(=Cc2ccc3c(c2)N(Cc2ccc(F)c(Cl)c2)C(=O)CO3)S1` [Example 308, 5-[4-(3-Chloro-4-fluoro-benzyl)-3-oxo-3,4-dihydro-2H-benzo[1,4]oxazin-6-ylmethylene]-thiazolidine-2,4-dione] was 9.00; that for `O=C1NC(=S)SC1=Cc1cc(F)c2c(c1)N(CCOc1ccc(F)cc1)C(=O)CO2` [Example 310, 8-Fluoro-4-[2-(4-fluoro-phenoxy)-ethyl]-6-(4-oxo-2-thioxo-thiazolidin-5-ylidenemethyl)-4H-benzo[1,4]oxazin-3-one] was 8.05.
In the case of `O=C1NC(=S)SC1=Cc1ccc2c(c1)N(Cc1ccc(F)c(F)c1)C(=O)CO2` [Example 312, 4-(3,4-Difluoro-benzyl)-6-(4-oxo-2-thioxo-thiazolidin-5-ylidenemethyl)-4H-1,4-benzoxazin-3-one] it was 8.52; in that of `COCCN(CCCN1C(=O)COc2c(F)cc(C=C3SC(=S)NC3=O)cc21)CCOC` [Example 313], 7.46; in that of `O=C1NC(=S)SC1=Cc1ccc2c(c1)N(Cc1ccc3nccnc3c1)C(=O)CO2` [Example 314, 6-(4-Oxo-2-thioxo-thiazolidin-5-ylidenemethyl)-4-quinoxalin-6-ylmethyl-4H-benzo[1,4]oxazin-3-one], 7.44.
The value for `O=C1NC(=S)SC1=Cc1cc(F)c2c(c1)N(Cc1ccc3nccnc3c1)C(=O)CO2` [Example 315, 8-Fluoro-6-(4-Oxo-2-thioxo-thiazolidin-5-ylidenemethyl)-4-quinoxalin-6-ylmethyl-4H-benzo[1,4]oxazin-3-one; Compound with Ethane-1,2-diamine] was 7.36.
As to `O=C1COc2ccc(C=C3SC(=S)N(c4ccccc4)C3=O)cc2N1Cc1ccc(Cl)s1` [Example 316, 4-(5-Chloro-thiophen-2-ylmethyl)6-(4-oxo-3-phenyl-2-thioxo-thiazolidin-5-ylidenemethyl)-4H-benzo[1,4]oxazin-3-one], the pIC50 was 5.43.
The value for `Cc1cc(CN2C(=O)COc3ccc(C=C4SC(=S)NC4=O)cc32)c(C)o1` [Example 317, 4-(2,5-Dimethyl-furan-3-ylmethyl)-6-(4-oxo-2-thioxo-thiazolidin-5-ylidenemethyl)-4H-benzo[1,4]oxazin-3-one] was 7.68; that for `Cc1cc(CN2C(=O)COc3c(F)cc(C=C4SC(=S)NC4=O)cc32)c(C)o1` [Example 318, 4-(2,5-Dimethyl-furan-3-ylmethyl)-8-fluoro-6-(4-oxo-2-thioxo-thiazolidin-5-ylidenemethyl)-4H-benzo[1,4]oxazin-3-one] was 7.60.
On to `O=C1NC(=S)SC1=Cc1cc(F)c2c(c1)N(Cc1ccc(Cl)s1)C(=O)CO2` [Example 319, 4-(5-Chloro-thiophen-2-ylmethyl)-8-fluoro-6-(4-oxo-2-thioxo-thiazolidin-5-ylidenemethyl)-4H-benzo[1,4]oxazin-3-one], for which the pIC50 is 8.30.
The value for `Cc1cc(CN2C(=O)COc3ccc(C=C4SC(=S)N(CC(=O)O)C4=O)cc32)c(C(F)(F)F)o1` [Example 321, {5-[4-(5-Methyl-2-triflouromethyl-furan-3-ylmethyl)-3-oxo-3,4-dihydro-2H-benzo[1,4]oxazin-6-ylmethylene]-4-oxo-2-thioxo-thiazolidin-3-yl}-acetic acid; Compound with ethane-1,2-diamine] was 5.01; that for `O=C1NC(=S)SC1=Cc1ccc2c(c1)N(Cc1ccc(Cl)s1)C(=O)CO2` [Example 322, 4-(5-Chloro-thiophen-2-ylmethyl)-6-(4-oxo-2-thioxo-thiazolidin-5-ylidenemethyl)-4H-benzo[1,4]oxazin-3-one] was 8.52.
Consider `O=C1NC(=S)SC1=Cc1ccc2c(c1)N(Cc1cnc3ccccc3c1)C(=O)CO2` [Example 323, 6-(4-Oxo-2-thioxo-thiazolidin-5-ylidenemethyl)-4-quinolin-3-ylmethyl-4H-benzo[1,4]oxazin-3-one], for which the pIC50 is 7.54.
Take `Cc1cc(CN2C(=O)COc3ccc(C=C4SC(=S)NC4=O)cc32)c(C(F)(F)F)o1` [Example 324, 4-(5-Methyl-2-triflouromethyl-furan-3-ylmethyl)-6-(4-oxo-2-thioxo-thiazolidin-5-ylidenemethyl)-4H-benzo[1,4]oxazin-3-one]: the pIC50 was 7.48.
Turning to `Cc1cc(CN2C(=O)COc3c(F)cc(C=C4SC(=S)NC4=O)cc32)nn1C(C)(C)C` [Example 325, 4-(1-tert-Butyl-5-methyl-1H-pyrazol-3-ylmethyl)-8-flouro-6-(4-oxo-2-thioxo-thiazolidin-5-ylidenemethyl)-4H-benzo[1,4]oxazin-3-one], the pIC50 is 7.74.
For `Cc1cc(CN2C(=O)COc3ccc(C=C4SC(=S)NC4=O)cc32)nn1C(C)(C)C` [Example 326, 4-(1-tert-Butyl-5-methyl-1H-pyrazol-3-ylmethyl)-6-(4-oxo-2-hioxo-thiazolidin-5-ylidenemethyl)-4H-benzo[1,4]oxazin-3-one], the pIC50 was 7.60.
The value for `CC(C)(C)c1cc(CN2C(=O)COc3ccc(C=C4SC(=S)NC4=O)cc32)n(Cc2ccccc2)n1` [Example 327, 4-(2-Benzyl-5-tert-butyl-2H-pyrazol-3-ylmethyl)-6-(4-oxo-2-thioxo-thiazolidin-5-ylidenemethyl)-4H-benzo[1,4]oxazin-3-one] was 6.61; that for `O=C1NC(=S)SC1=Cc1cc(F)c2c(c1)N(Cc1ccc3ncccc3c1)C(=O)CO2` [Example 328, 8-Fluoro-6-(4-oxo-2-thioxo-thiazolidin-5-ylidenemethyl)-4-quinolin-6-ylmethyl-4H-1,4-benzoxazin-3-one] was 8.22; that for `Cc1cc(CN2C(=O)COc3ccc(C=C4SC(=S)NC4=O)cc32)nn1C` [Example 329, 4-(1,5-Dimethyl-1H-pyrazol-3-ylmethyl)-6-(4-oxo-2-thioxo-thiazolidin-5-ylidenemethyl)-4H-1,4-benzoxazin-3-one] was 7.55.
